Measured values as given in ChEMBL document CHEMBL5653615 (J Biol Chem, 2013).

Legend:
[1] = target: T1, Serine/threonine-protein kinase D3 (Homo sapiens) (UniProt O94806); assay: Inhibition of human PRKD3 at 18.6 nM by HotSpot assay relative to control
T1 sequence (whole entry): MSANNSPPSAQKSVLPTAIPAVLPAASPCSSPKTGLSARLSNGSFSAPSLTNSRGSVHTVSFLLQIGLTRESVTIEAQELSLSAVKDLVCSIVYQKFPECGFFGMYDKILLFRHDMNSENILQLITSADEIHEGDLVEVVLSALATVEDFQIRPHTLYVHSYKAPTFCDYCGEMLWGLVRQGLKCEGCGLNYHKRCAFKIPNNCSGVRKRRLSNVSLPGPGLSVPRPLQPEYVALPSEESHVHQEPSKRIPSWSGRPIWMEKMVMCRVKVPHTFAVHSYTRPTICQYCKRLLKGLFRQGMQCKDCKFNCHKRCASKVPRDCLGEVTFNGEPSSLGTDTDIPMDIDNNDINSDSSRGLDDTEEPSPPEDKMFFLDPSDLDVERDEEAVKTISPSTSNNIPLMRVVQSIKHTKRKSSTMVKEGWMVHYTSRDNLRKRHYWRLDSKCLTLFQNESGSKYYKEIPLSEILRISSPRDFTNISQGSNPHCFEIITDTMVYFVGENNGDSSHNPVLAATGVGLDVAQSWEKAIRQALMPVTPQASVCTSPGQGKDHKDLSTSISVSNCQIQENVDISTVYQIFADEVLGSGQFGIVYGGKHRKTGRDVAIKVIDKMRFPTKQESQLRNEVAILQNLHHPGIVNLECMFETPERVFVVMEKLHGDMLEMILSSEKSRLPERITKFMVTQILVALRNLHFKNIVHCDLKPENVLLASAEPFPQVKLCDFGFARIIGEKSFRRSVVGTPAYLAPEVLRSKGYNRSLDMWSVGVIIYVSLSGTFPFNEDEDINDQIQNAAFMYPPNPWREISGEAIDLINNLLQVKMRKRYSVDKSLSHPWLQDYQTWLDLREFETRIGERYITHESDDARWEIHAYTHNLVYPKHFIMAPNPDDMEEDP

[2] = target: Homeodomain-interacting protein kinase 2 (Homo sapiens) (UniProt Q9H2X6); assay: Inhibition of human HIPK2 at 18.6 nM by HotSpot assay relative to control
[3] = target: T2, Protein kinase C epsilon type (Homo sapiens) (UniProt Q02156); assay: Inhibition of human PKCepsilon at 1.82 nM by HotSpot assay relative to control
T2 sequence (whole entry): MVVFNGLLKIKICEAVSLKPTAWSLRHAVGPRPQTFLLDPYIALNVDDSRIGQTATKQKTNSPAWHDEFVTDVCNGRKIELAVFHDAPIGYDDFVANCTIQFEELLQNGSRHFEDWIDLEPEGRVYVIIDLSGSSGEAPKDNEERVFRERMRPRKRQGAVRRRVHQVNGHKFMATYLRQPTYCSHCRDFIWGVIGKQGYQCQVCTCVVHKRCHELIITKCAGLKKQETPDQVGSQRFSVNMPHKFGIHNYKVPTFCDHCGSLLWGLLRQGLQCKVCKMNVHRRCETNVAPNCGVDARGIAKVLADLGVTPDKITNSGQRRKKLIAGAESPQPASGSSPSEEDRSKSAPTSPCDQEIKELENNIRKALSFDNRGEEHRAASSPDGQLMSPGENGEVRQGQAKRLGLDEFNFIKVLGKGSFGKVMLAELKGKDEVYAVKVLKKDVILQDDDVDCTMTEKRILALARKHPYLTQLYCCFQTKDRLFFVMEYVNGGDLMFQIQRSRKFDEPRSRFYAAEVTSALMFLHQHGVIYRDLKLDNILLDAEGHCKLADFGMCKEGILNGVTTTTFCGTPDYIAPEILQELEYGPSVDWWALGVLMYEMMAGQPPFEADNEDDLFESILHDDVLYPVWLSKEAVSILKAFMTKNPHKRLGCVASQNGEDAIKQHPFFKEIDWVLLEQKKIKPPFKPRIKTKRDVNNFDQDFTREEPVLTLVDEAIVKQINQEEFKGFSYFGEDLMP

[4] = target: T3, Tyrosine-protein kinase Tec (Homo sapiens) (UniProt P42680); assay: Inhibition of human TEC at 1.82 nM by HotSpot assay relative to control
T3 sequence (whole entry): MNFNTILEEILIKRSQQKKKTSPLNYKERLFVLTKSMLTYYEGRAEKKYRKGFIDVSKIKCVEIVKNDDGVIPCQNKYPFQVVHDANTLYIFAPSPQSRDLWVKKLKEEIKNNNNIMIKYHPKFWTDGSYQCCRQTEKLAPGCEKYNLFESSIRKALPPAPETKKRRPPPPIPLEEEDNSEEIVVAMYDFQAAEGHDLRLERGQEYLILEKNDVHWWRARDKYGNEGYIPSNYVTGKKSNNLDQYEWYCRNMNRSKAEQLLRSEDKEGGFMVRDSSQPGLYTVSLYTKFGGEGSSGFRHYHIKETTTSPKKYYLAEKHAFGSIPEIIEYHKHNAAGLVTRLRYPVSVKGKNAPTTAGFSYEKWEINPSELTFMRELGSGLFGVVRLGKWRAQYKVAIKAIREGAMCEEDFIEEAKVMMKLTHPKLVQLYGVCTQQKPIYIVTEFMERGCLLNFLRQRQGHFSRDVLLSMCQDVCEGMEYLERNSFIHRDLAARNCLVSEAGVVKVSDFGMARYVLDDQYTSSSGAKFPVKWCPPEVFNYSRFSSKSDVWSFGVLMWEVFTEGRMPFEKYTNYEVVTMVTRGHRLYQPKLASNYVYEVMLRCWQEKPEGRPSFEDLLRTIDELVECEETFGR

[5] = target: Tyrosine-protein kinase BTK (Homo sapiens) (UniProt Q06187); assay: Inhibition of human BTK at 1.82 nM by HotSpot assay relative to control
[6] = target: Homeodomain-interacting protein kinase 2 (Homo sapiens) (UniProt Q9H2X6); assay: Inhibition of human HIPK2 at 1.82 nM by HotSpot assay relative to control

Sequence of Homeodomain-interacting protein kinase 2 (Homo sapiens) (Q9H2X6 whole entry, looked up): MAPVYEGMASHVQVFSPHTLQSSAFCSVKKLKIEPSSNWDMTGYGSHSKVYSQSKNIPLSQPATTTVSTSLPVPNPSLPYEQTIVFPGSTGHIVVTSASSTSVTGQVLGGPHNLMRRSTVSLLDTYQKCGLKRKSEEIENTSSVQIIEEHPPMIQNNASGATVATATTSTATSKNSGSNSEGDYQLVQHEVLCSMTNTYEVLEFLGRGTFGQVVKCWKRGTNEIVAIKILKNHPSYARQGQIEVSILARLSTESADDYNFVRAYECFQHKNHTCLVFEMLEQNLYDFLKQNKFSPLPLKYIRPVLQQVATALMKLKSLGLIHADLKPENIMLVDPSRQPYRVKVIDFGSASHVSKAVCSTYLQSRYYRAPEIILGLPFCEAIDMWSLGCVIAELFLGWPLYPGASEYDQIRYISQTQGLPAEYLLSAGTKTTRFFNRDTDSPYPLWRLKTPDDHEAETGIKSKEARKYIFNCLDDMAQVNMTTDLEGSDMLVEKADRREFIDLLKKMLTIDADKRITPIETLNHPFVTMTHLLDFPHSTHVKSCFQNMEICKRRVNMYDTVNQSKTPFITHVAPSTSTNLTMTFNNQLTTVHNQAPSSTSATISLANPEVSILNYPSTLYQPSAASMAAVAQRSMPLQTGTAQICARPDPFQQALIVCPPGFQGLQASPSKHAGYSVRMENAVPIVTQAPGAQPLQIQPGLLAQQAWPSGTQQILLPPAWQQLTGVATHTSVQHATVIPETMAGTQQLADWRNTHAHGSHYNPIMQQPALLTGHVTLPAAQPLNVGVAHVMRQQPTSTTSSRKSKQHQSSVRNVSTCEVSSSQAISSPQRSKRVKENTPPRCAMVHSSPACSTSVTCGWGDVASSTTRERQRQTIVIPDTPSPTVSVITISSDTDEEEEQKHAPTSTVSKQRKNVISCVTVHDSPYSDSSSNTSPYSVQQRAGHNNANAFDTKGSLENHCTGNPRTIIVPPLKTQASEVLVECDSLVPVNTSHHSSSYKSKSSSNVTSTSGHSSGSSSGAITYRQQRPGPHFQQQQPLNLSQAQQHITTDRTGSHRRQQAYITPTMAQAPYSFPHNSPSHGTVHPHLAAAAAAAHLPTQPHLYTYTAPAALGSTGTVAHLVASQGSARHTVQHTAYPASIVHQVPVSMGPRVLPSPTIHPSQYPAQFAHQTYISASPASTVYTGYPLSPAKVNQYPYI
Sequence of Tyrosine-protein kinase BTK (Homo sapiens) (Q06187 whole entry): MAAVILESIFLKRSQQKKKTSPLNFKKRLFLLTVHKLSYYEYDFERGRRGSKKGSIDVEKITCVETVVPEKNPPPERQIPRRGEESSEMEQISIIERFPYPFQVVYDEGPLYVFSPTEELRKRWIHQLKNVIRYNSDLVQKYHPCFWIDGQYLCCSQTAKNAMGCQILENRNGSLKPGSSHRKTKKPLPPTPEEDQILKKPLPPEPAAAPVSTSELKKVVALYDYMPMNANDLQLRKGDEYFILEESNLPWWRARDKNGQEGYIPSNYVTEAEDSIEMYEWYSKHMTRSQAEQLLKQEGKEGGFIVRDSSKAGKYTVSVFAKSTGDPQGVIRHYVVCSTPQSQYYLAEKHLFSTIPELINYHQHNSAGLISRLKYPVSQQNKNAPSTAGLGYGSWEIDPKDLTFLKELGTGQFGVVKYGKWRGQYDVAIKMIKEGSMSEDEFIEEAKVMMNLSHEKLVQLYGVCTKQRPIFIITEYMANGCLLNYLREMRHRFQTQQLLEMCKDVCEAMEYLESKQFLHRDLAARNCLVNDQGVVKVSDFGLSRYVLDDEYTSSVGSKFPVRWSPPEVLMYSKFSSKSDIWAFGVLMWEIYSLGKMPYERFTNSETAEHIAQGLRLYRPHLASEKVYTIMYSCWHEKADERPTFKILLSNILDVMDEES

Row | inhibition [1] [%] | inhibition [2] [%] | inhibition [3] [%] | inhibition [4] [%] | inhibition [5] [%] | inhibition [6] [%] | SMILES
1 | 9.14 | -0.98 |  |  |  |  | C[C@]1(O)C[C@@H](c2nc(-c3ccc4ccc(-c5ccccc5)nc4c3)c3c(N)nccn32)C1
2 |  |  | -6.93 | -3.36 | 4.42 | 3.96 | C[C@@]1(C(=O)Nc2ccc(F)nc2)CCCN1c1nc(Nc2cc(C3CC3)n[nH]2)c2cccn2n1
